pKi: −log10 of the molar value.
Legend:
DDR1 = target: T1, DDR1 (Homo sapiens, UniProt Q08345); assay: LanthaScreen Europium Kinase Binding assay, DDR1; settings: 5 nM DDR1, 20 nM Kinase Tracer 178, 1 h at rt; Ki from IC50 by Cheng-Prusoff; read-out: Ki DDR1
T1 construct: purchased Carna Biosciences
Procedure: (§1) DDR1 and DDR2 binding assays were performed using Life Technologies LanthaScreen™ Europium Kinase Binding assay. […] IC50 values were determined in GraphPad Prism 7.0 software, using 4 parameter model: log (inhibitor) vs. response. IC50 values were converted in Ki using the Cheng-Prusoff equation (Ki-IC50/(1+ [Tracer]/Kd).

DDR2 = target: T2, DDR2 (Homo sapiens, UniProt Q16832); assay: LanthaScreen Europium Kinase Binding assay, DDR2; settings: 5 nM DDR2, 10 nM Kinase Tracer 178, 1 h at rt; Ki from IC50 by Cheng-Prusoff; read-out: Ki DDR2
T2 construct: purchased Life Technologies
T2 sequence (Q16832 22-855): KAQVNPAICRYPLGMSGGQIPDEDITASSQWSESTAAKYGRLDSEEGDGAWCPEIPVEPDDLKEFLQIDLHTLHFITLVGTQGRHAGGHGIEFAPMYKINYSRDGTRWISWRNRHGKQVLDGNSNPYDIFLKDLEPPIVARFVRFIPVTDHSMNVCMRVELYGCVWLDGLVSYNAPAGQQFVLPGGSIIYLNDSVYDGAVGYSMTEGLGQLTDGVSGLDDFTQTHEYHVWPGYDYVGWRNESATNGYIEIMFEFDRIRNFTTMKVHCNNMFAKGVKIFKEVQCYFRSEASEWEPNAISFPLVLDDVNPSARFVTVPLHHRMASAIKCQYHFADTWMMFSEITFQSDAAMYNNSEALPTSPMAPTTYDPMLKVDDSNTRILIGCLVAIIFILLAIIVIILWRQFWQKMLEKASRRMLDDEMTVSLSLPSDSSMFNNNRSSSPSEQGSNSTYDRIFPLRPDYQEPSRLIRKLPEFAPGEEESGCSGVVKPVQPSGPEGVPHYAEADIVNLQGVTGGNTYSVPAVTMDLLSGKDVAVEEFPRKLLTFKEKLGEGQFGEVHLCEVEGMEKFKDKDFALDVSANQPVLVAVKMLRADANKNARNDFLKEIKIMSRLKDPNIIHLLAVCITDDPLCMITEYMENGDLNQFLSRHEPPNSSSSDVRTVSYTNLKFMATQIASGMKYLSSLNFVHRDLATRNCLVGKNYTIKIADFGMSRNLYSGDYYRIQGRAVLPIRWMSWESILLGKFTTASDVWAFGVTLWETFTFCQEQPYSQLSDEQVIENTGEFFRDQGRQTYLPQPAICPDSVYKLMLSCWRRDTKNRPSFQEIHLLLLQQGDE
Procedure: as §1

T1 sequence (Q08345 19-913): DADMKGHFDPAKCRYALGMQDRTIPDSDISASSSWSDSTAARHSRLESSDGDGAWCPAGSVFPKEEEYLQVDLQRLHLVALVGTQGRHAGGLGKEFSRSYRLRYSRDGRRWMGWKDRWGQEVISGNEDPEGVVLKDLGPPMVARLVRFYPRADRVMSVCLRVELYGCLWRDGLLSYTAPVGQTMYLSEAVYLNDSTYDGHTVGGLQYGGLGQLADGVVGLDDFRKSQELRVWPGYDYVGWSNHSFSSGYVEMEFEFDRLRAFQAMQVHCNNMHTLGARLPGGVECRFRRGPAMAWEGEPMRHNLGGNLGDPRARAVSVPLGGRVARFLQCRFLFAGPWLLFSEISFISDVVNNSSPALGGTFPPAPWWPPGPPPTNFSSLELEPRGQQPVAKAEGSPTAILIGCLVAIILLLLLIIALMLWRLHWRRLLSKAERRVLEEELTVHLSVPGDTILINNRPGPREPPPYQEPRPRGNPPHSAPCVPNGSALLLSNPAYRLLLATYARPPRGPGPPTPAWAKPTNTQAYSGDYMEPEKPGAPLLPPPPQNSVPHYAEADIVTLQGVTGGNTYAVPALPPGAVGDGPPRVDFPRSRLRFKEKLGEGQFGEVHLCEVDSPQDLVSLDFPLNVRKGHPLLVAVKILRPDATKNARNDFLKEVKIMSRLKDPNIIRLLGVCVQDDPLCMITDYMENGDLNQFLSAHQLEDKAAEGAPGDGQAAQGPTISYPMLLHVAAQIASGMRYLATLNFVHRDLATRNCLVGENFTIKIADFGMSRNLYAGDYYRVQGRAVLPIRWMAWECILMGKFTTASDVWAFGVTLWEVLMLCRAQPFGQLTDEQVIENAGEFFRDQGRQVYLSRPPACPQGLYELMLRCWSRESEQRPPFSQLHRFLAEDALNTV

SMILES	pKi (DDR1)	pKi (DDR2)
Cn1cc(C(F)(F)F)cc(NC(=O)NC2CC3(C2)CN(C(=O)c2cnn4ccsc24)C3)c1=O [Example 58, 1-(1-methyl-2-oxo-5-(trifluoromethyl)-1,2-dihydropyridin-3-yl)-3-(2-(pyrazolo[5,1-b]thiazole-7-carbonyl)-2-azaspiro[3.3]heptan-6-yl)urea]	> 8.30	7.60 to 8.30
O=C(Nc1cc(C(F)(F)F)ccn1)NC1CC2(C1)CN(C(=O)c1cnn3ccsc13)C2 [Example 59, 1-(2-(pyrazolo[5,1-b]thiazole-7-carbonyl)-2-azaspiro[3.3]heptan-6-yl)-3-(4-(trifluoromethyl)pyridin-2-yl)urea]	> 8.30	7.60 to 8.30
COc1ccc(OC(F)(F)F)cc1NC(=O)NC1CC2(C1)CN(C(=O)c1ncnc3ccsc13)C2 [Example 62, 1-(2-methoxy-5-(trifluoromethoxy)phenyl)-3-(2-(thieno[3,2-d]pyrimidine-4-carbonyl)-2-azaspiro[3.3]heptan-6-yl)urea]	> 8.30	7.60 to 8.30
Cn1ccn2ncc(C(=O)N3CC4(CC(NC(=O)Nc5cccc(C(F)F)c5)C4)C3)c12 [Example 63, 1-(3-(difluoromethyl)phenyl)-3-(2-(1-methyl-1H-imidazo[1,2-b]pyrazole-7-carbonyl)-2-azaspiro[3.3]heptan-6-yl)urea]	> 8.30	7.60 to 8.30
Cn1ccn2ncc(C(=O)N3CC4(CC(NC(=O)Nc5cc(C(F)F)ccn5)C4)C3)c12 [Example 66, 1-(4-(difluoromethyl)pyridin-2-yl)-3-(2-(1-methyl-1H-imidazo[1,2-b]pyrazole-7-carbonyl)-2-azaspiro[3.3]heptan-6-yl)urea]	> 8.30	7.60 to 8.30
Cn1ccn2ncc(C(=O)N3CC4(CC(NC(=O)Nc5cccc(OC(F)F)c5)C4)C3)c12 [Example 67, 1-(3-(difluoromethoxy)phenyl)-3-(2-(1-methyl-1H-imidazo[1,2-b]pyrazole-7-carbonyl)-2-azaspiro[3.3]heptan-6-yl)urea]	> 8.30	7.60 to 8.30
COc1ccc(OC(F)(F)F)cc1NC(=O)NC1CC2(C1)CN(C(=O)c1cnn3ccccc13)C2 [Example 68, 1-(2-methoxy-5-(trifluoromethoxy)phenyl)-3-(2-(pyrazolo[1,5-a]pyridine-3-carbonyl)-2-azaspiro[3.3]heptan-6-yl)urea]	> 8.30	7.60 to 8.30
COc1ccc(OC(F)(F)F)cc1NC(=O)NC1CC2(C1)CN(C(=O)c1cnn3ccc(N4CCN(C)CC4)cc13)C2 [Example 69, 1-(2-methoxy-5-(trifluoromethoxy)phenyl)-3-(2-(5-(4-methylpiperazin-1-yl)pyrazolo[1,5-a]pyridine-3-carbonyl)-2-azaspiro[3.3]heptan-6-yl)urea]	> 8.30	7.60 to 8.30
CCn1ccn2ncc(C(=O)N3CC4(CC(NC(=O)Nc5cccc(C(F)(F)F)c5)C4)C3)c12 [Example 70, 1-(2-(1-ethyl-1H-imidazo[1,2-b]pyrazole-7-carbonyl)-2-azaspiro[3.3]heptan-6-yl)-3-(3-(trifluoromethyl)phenyl)urea]	> 8.30	> 8.30
O=C(Nc1cc(C(F)F)ccn1)NC1CC2(C1)CN(C(=O)c1ncnc3ccsc13)C2 [Example 74, 1-(4-(difluoromethyl)pyridin-2-yl)-3-(2-(thieno[3,2-d]pyrimidine-4-carbonyl)-2-azaspiro[3.3]heptan-6-yl)urea]	> 8.30	> 8.30
COc1ccc(OC(F)(F)F)cc1NC(=O)N(C)C1CC2(C1)CN(C(=O)c1ncnc3ccsc13)C2 [Example 77, 3-(2-methoxy-5-(trifluoromethoxy)phenyl)-1-methyl-1-(2-(thieno[3,2-d]pyrimidine-4-carbonyl)-2-azaspiro[3.3]heptan-6-yl)urea]	> 8.30	7.60 to 8.30
COc1c(CO)cc(OC(F)(F)F)cc1NC(=O)NC1CC2(C1)CN(C(=O)c1cnn3ccn(C)c13)C2 [Example 78, 1-(3-(hydroxymethyl)-2-methoxy-5-(trifluoromethoxy)phenyl)-3-(2-(1-methyl-1H-imidazo[1,2-b]pyrazole-7-carbonyl)-2-azaspiro[3.3]heptan-6-yl)urea]	> 8.30	7.00 to 7.60
O=C(Nc1cccc(C(F)(F)F)c1)NC1CC2(C1)CN(C(=O)c1ncnc3ccsc13)C2 [Example 79, 1-(2-(thieno[3,2-d]pyrimidine-4-carbonyl)-2-azaspiro[3.3]heptan-6-yl)-3-(3-(trifluoromethyl)phenyl)urea]	> 8.30	> 8.30
Cc1ccc(-n2nc(C(C)(C)C)cc2NC(=O)NC2CC3(C2)CN(C(=O)c2cnn4ccsc24)C3)cc1 [Example 80, 1-(3-(tert-butyl)-1-(p-tolyl)-1H-pyrazol-5-yl)-3-(2-(pyrazolo[5,1-b]thiazole-7-carbonyl)-2-azaspiro[3.3]heptan-6-yl)urea]	> 8.30	7.60 to 8.30
COc1ccc(OC(F)(F)F)cc1NC(=O)N(C)C1CC2(C1)CN(C(=O)c1cnn3ccc(N4CCN(C)CC4)cc13)C2 [Example 81, 3-(2-methoxy-5-(trifluoromethoxy)phenyl)-1-methyl-1-(2-(5-(4-methylpiperazin-1-yl)pyrazolo[1,5-a]pyridine-3-carbonyl)-2-azaspiro[3.3]heptan-6-yl)urea]	> 8.30	7.60 to 8.30
Cc1ccc(-n2nc(C(C)(C)C)cc2NC(=O)NC2CC3(C2)CN(C(=O)c2ncnc4ccsc24)C3)cc1 [Example 82, 1-(3-(tert-butyl)-1-(p-tolyl)-1H-pyrazol-5-yl)-3-(2-(thieno[3,2-d]pyrimidine-4-carbonyl)-2-azaspiro[3.3]heptan-6-yl)urea]	> 8.30	7.60 to 8.30

Second part, the molecule after the results:

pKi (DDR1)	pKi (DDR2)	SMILES
> 8.30	> 8.30	CN(C(=O)Nc1cc(F)cc(C(F)(F)F)c1)C1CC2(C1)CN(C(=O)c1cnn3ccsc13)C2 [Example 60, 3-(3-fluoro-5-(trifluoromethyl)phenyl)-1-methyl-1-(2-(pyrazolo[5,1-b]thiazole-7-carbonyl)-2-azaspiro[3.3]heptan-6-yl)urea]
> 8.30	7.60 to 8.30	Cc1ccc(OC(F)(F)F)cc1NC(=O)NC1CC2(C1)CN(C(=O)c1cnn3ccn(C)c13)C2 [Example 61, 1-(2-(1-methyl-1H-imidazo[1,2-b]pyrazole-7-carbonyl)-2-azaspiro[3.3]heptan-6-yl)-3-(2-methyl-5-(trifluoromethoxy)phenyl)urea]
> 8.30	7.60 to 8.30	CN(C(=O)Nc1cc(F)cc(C(F)(F)F)c1)C1CC2(C1)CN(C(=O)c1cnn3ccn(C)c13)C2 [Example 64, 3-(3-fluoro-5-(trifluoromethyl)phenyl)-1-methyl-1-(2-(1-methyl-1H-imidazo[1,2-b]pyrazole-7-carbonyl)-2-azaspiro[3.3]heptan-6-yl)urea]
> 8.30	7.60 to 8.30	COc1ccc(C(F)(F)F)cc1NC(=O)NC1CC2(C1)CN(C(=O)c1cnn3ccn(C)c13)C2 [Example 65, 1-(2-methoxy-5-(trifluoromethyl)phenyl)-3-(2-(1-methyl-1H-imidazo[1,2-b]pyrazole-7-carbonyl)-2-azaspiro[3.3]heptan-6-yl)urea]
> 8.30	> 8.30	Cn1ccn2ncc(C(=O)N3CC4(CC(NC(=O)Nc5cc(C#N)cc(OC(F)(F)F)c5)C4)C3)c12 [Example 71, 1-(3-cyano-5-(trifluoromethoxy)phenyl)-3-(2-(1-methyl-1H-imidazo[1,2-b]pyrazole-7-carbonyl)-2-azaspiro[3.3]heptan-6-yl)urea]
> 8.30	7.60 to 8.30	Cn1ccn2ncc(C(=O)N3CC4(CC(NC(=O)Nc5cc(OC(F)(F)F)ccc5F)C4)C3)c12 [Example 72, 1-(2-fluoro-5-(trifluoromethoxy)phenyl)-3-(2-(1-methyl-1H-imidazo[1,2-b]pyrazole-7-carbonyl)-2-azaspiro[3.3]heptan-6-yl)urea]
> 8.30	7.60 to 8.30	Cn1ccn2ncc(C(=O)N3CC4(CC(NC(=O)Nc5cc(OC(F)(F)F)ccn5)C4)C3)c12 [Example 73, 1-(2-(1-methyl-1H-imidazo[1,2-b]pyrazole-7-carbonyl)-2-azaspiro[3.3]heptan-6-yl)-3-(4-(trifluoromethoxy)pyridin-2-yl)urea]
> 8.30	7.60 to 8.30	Cn1ccn2ncc(C(=O)N3CC4(CC(NC(=O)Nc5cc(C(F)(F)F)ccn5)C4)C3)c12 [Example 75, 1-(2-(1-methyl-1H-imidazo[1,2-b]pyrazole-7-carbonyl)-2-azaspiro[3.3]heptan-6-yl)-3-(4-(trifluoromethyl)pyridin-2-yl)urea]

— patent US20260285855A1, “HETEROARYL DERIVATIVES AS DDRS INHIBITORS” (CHIESI FARMACEUTICI S.P.A., priority 2023, published 2026)
